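Growth conditions: 96-well plates. Treatment: test compound, 48 hours, 5 concentrations. Analysis: linear interpolation between bracketing concentrations; unreached endpoints set to highest concentration. GI50 = concentration required for 50% inhibition of growth.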 Active and inactive are the calls of the source. No stated cut-off is given here; in the data, active = GI50 up to about 1.1 µM and inactive = higher.
Columns and labels:
Experiment in all cases: NCI tumour cell line growth inhibition, 48 h
SK-OV-3 = system: SK-OV-3
BT-549 = system: BT-549
EKVX = system: EKVX
HCC 2998 = system: HCC 2998
IGROV-1 = system: IGROV-1
K562 = system: K562
786-0 = system: 786-0
HT-29 = system: HT-29
NCI-H226 = system: NCI-H226
COLO 205 = system: COLO 205
MOLT-4 = system: MOLT-4
UACC-257 = system: UACC-257
OVCAR-3 = system: OVCAR-3
SNB-75 = system: SNB-75
NCI-H460 = system: NCI-H460
RPMI-8226 = system: RPMI-8226
ACHN = system: ACHN
KM12 = system: KM12
U-251 = system: U-251
LOX IMVI = system: LOX IMVI

## C=C1CCC(O)C/C1=C/C=C1\CCCC2(C)C1CCC2C(C)CCCC(C)C (stereo not given)
SK-OV-3
  GI50: 22.8 µM (inactive)
BT-549
  GI50: 19.5 µM (inactive)
EKVX
  GI50: 19 µM (inactive)
HCC 2998
  GI50: 21.2 µM (inactive)
IGROV-1
  GI50: 17.3 µM (inactive)
K562
  GI50: 21.2 µM (inactive)
786-0
  GI50: 16.7 µM (inactive)
HT-29
  GI50: 15.3 µM (inactive)
NCI-H226
  GI50: 16 µM (inactive)
COLO 205
  GI50: 19 µM (inactive)
MOLT-4
  GI50: 20.2 µM (inactive)
UACC-257
  GI50: 17 µM (inactive)
OVCAR-3
  GI50: 18.5 µM (inactive)
SNB-75
  GI50: 17.4 µM (inactive)
NCI-H460
  GI50: 20.4 µM (inactive)
RPMI-8226
  GI50: 23.8 µM (inactive)
ACHN
  GI50: 16 µM (inactive)
KM12
  GI50: 20.6 µM (inactive)
U-251
  GI50: 18.6 µM (inactive)
LOX IMVI
  GI50: 17.9 µM (inactive)

## COc1ccc(-c2nc(N)c(C#N)c3c2CCSc2ccc(C)cc2-3)cc1OC
SK-OV-3
  GI50: 10.9 µM (inactive)
BT-549
  GI50: 8.59 µM (inactive)
EKVX
  GI50: 17.9 µM (inactive)
HCC 2998
  GI50: 16.3 µM (inactive)
IGROV-1
  GI50: 23.1 µM (inactive)
K562
  GI50: 1.24 µM (inactive)
786-0
  GI50: 15 µM (inactive)
HT-29
  GI50: 14.2 µM (inactive)
NCI-H226
  GI50: 14.8 µM (inactive)
COLO 205
  GI50: 5.51 µM (inactive)
MOLT-4
  GI50: 3.49 µM (inactive)
UACC-257
  GI50: 13.8 µM (inactive)
OVCAR-3
  GI50: 20.7 µM (inactive)
SNB-75
  GI50: 10.7 µM (inactive)
NCI-H460
  GI50: 18.5 µM (inactive)
RPMI-8226
  GI50: 0.594 µM (active)
ACHN
  GI50: 19.9 µM (inactive)
KM12
  GI50: 6.84 µM (inactive)
U-251
  GI50: 18.1 µM (inactive)
LOX IMVI
  GI50: 14.8 µM (inactive)

## C/N=C(N)/N=C(\N)Nc1cc2ccccc2c2ccccc12
SK-OV-3
  GI50: 16.3 µM (inactive)
BT-549
  GI50: 15.1 µM (inactive)
EKVX
  GI50: 16.3 µM (inactive)
HCC 2998
  GI50: 2.44 µM (inactive)
IGROV-1
  GI50: 17.9 µM (inactive)
K562
  GI50: 19.1 µM (inactive)
786-0
  GI50: 12.4 µM (inactive)
HT-29
  GI50: 15 µM (inactive)
NCI-H226
  GI50: 20.7 µM (inactive)
COLO 205
  GI50: 13.7 µM (inactive)
MOLT-4
  GI50: 10.4 µM (inactive)
UACC-257
  GI50: 16.7 µM (inactive)
OVCAR-3
  GI50: 16.7 µM (inactive)
SNB-75
  GI50: 13 µM (inactive)
NCI-H460
  GI50: 11.1 µM (inactive)
RPMI-8226
  GI50: 15.5 µM (inactive)
ACHN
  GI50: 13.5 µM (inactive)
KM12
  GI50: 17.1 µM (inactive)
U-251
  GI50: 15.2 µM (inactive)
LOX IMVI
  GI50: 13 µM (inactive)

## CCCNC(=O)CCC(C)[C@H]1CCC2C3C(C[C@H](OC(C)=O)[C@@]21C)[C@@]1(C)CCC2(C[C@H]1C[C@H]3OC(C)=O)OOC1(CCCCC1)OO2 (stereo not given in full)
SK-OV-3
  GI50: 24.9 µM (inactive)
BT-549
  GI50: 2.55 µM (inactive)
EKVX
  GI50: 1.58 µM (inactive)
HCC 2998
  GI50: 2.7 µM (inactive)
IGROV-1
  GI50: 0.478 µM (active)
K562
  GI50: 4.05 µM (inactive)
786-0
  GI50: 2.31 µM (inactive)
HT-29
  GI50: 3.96 µM (inactive)
NCI-H226
  GI50: 3.84 µM (inactive)
COLO 205
  GI50: 1.75 µM (inactive)
MOLT-4
  GI50: 1.67 µM (inactive)
UACC-257
  GI50: 5.3 µM (inactive)
OVCAR-3
  GI50: 1.87 µM (inactive)
SNB-75
  GI50: 1.9 µM (inactive)
NCI-H460
  GI50: 1.67 µM (inactive)
RPMI-8226
  GI50: 0.923 µM (active)
ACHN
  GI50: 1.24 µM (inactive)
KM12
  GI50: 1.44 µM (inactive)
U-251
  GI50: 1.85 µM (inactive)
LOX IMVI
  GI50: 1.84 µM (inactive)

## O=C1CC(C(O)(C(F)(F)F)C(F)(F)Cl)CCC1C(O)(C(F)(F)F)C(F)(F)Cl (stereo not given)
SK-OV-3
  GI50: > 10 µM (inactive)
BT-549
  GI50: > 10 µM (inactive)
EKVX
  GI50: > 10 µM (inactive)
HCC 2998
  GI50: > 10 µM (inactive)
IGROV-1
  GI50: > 10 µM (inactive)
K562
  GI50: > 10 µM (inactive)
786-0
  GI50: > 10 µM (inactive)
HT-29
  GI50: 5.78 µM (inactive)
NCI-H226
  GI50: > 10 µM (inactive)
COLO 205
  GI50: 4.6 µM (inactive)
MOLT-4
  GI50: > 10 µM (inactive)
UACC-257
  GI50: 4.18 µM (inactive)
OVCAR-3
  GI50: > 10 µM (inactive)
SNB-75
  GI50: 8.71 µM (inactive)
NCI-H460
  GI50: > 10 µM (inactive)
RPMI-8226
  GI50: > 10 µM (inactive)
ACHN
  GI50: > 10 µM (inactive)
KM12
  GI50: > 10 µM (inactive)
U-251
  GI50: > 10 µM (inactive)
LOX IMVI
  GI50: > 10 µM (inactive)

## Cc1cc(=O)n2nc(CSc3nnc(Sc4cc(O)ccc4O)s3)sc2n1
SK-OV-3
  GI50: > 100 µM (inactive)
BT-549
  GI50: 39.3 µM (inactive)
EKVX
  GI50: 99.3 µM (inactive)
HCC 2998
  GI50: > 100 µM (inactive)
IGROV-1
  GI50: > 100 µM (inactive)
K562
  GI50: 21.5 µM (inactive)
786-0
  GI50: 41.3 µM (inactive)
HT-29
  GI50: > 100 µM (inactive)
NCI-H226
  GI50: > 100 µM (inactive)
COLO 205
  GI50: 68.5 µM (inactive)
MOLT-4
  GI50: 24.4 µM (inactive)
UACC-257
  GI50: > 100 µM (inactive)
OVCAR-3
  GI50: 34.4 µM (inactive)
SNB-75
  GI50: > 100 µM (inactive)
NCI-H460
  GI50: > 100 µM (inactive)
RPMI-8226
  GI50: 24.5 µM (inactive)
ACHN
  GI50: > 100 µM (inactive)
KM12
  GI50: > 100 µM (inactive)
U-251
  GI50: 35.8 µM (inactive)
LOX IMVI
  GI50: 21.7 µM (inactive)

## N=c1oc2ccccc2cc1C(=O)NC12CC3CC(CC(C3)C1)C2
SK-OV-3
  GI50: 7.64 µM (inactive)
BT-549
  GI50: 18.2 µM (inactive)
EKVX
  GI50: 21.9 µM (inactive)
HCC 2998
  GI50: 14.5 µM (inactive)
IGROV-1
  GI50: 16.5 µM (inactive)
K562
  GI50: 13.9 µM (inactive)
786-0
  GI50: 2.88 µM (inactive)
HT-29
  GI50: 6.11 µM (inactive)
NCI-H226
  GI50: 24.2 µM (inactive)
COLO 205
  GI50: 14.1 µM (inactive)
MOLT-4
  GI50: 2.41 µM (inactive)
UACC-257
  GI50: 23 µM (inactive)
OVCAR-3
  GI50: 12.5 µM (inactive)
SNB-75
  GI50: 19.3 µM (inactive)
NCI-H460
  GI50: 14.4 µM (inactive)
RPMI-8226
  GI50: 5.71 µM (inactive)
ACHN
  GI50: 6.89 µM (inactive)
KM12
  GI50: 12 µM (inactive)
U-251
  GI50: 17.1 µM (inactive)
LOX IMVI
  GI50: 13.8 µM (inactive)

Source: ChEMBL document CHEMBL1201862, “PubChem BioAssay data set” (2004)
